From ChEMBL document CHEMBL1201862, “PubChem BioAssay data set” (2004)
The source made the active and inactive calls. Rule as the data show it: actives have a measured IC50 and inactives only a lower limit.

Molecular target: Envelope glycoprotein gp160 (Human immunodeficiency virus 1, UniProt Q6QLK5)
Experiment: cell-free HIV fusion peptide-binding blockers – biochemical, uHTS, fluorescence dequenching, […] (AID 1986)

Envelope glycoprotein gp160, sequence (Q6QLK5 whole entry, the tested form may be a part): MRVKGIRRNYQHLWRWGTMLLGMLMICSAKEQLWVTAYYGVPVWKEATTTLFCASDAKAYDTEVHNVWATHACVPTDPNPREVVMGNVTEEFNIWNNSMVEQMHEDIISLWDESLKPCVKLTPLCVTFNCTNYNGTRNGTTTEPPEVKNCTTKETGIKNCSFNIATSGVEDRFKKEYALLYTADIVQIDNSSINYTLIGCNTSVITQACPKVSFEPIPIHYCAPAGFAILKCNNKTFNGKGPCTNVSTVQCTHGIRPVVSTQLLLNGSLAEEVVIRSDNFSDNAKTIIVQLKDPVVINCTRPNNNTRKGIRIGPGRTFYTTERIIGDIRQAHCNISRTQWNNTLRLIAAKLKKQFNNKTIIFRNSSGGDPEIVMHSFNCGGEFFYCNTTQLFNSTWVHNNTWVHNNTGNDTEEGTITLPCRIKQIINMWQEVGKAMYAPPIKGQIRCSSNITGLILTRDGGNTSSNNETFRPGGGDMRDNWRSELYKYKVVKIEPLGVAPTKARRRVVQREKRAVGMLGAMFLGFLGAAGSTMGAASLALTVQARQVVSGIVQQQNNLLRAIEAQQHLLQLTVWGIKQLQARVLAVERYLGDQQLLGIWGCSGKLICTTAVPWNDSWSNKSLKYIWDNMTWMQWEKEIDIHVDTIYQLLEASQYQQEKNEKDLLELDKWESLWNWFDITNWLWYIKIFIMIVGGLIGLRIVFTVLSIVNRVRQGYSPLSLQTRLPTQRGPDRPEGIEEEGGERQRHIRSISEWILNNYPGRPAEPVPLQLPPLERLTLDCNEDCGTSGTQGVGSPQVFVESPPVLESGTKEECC

## O=C(N/N=C/c1ccc(-c2ccc(S(=O)(=O)Nc3ncccn3)cc2)o1)c1cc2ccccc2cc1O
  IC50: 5.36 µM (active)
